Results as given in the supplement of paper PMC10307832.

Legend:
Assay in all cases: relative viability (nuclei count vs DMSO), 5 days (fraction); higher = more cells survive
[1] = compound: CC1=C(C=C(C=C1)NC(=O)C2=CC(=CC=C2)C(C)(C)C#N)NC3=CC4=C(C=C3)N=CN(C4=O)C [AZ628] + NC(=O)Nc1cc(-c2cccc(F)c2)sc1C(=O)N[C@H]1CCCNC1 [AZD7762] (partner 0.2 µM)
Outline: (§1)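 The day after seeding in 1536-well plates, lung cancer cell lines were treated by pin tool with a single drug, or with a fixed anchor-drug dose together with five library-drug doses (not always all listed) in √10 steps. After 5 days, a combined fix-and-stain solution (final 0.05% Triton X-100, 1% formaldehyde, 1 ug/ml Hoechst) was added. Nuclei counted on 4× images gave relative viability as treated counts over vehicle counts, reported as the median of duplicate plates.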

[2] = compound: C1CC2=C(C1)C=C(C=C2)OC3=NC(=C4C(=N3)N(C=N4)CC5=CC=C(C=C5)C6=CC=CC=C6)N[C@@H](CC7=CC=CC=C7)CO [QS11] + CC(=O)Nc1cccc(-n2c(=O)n(C3CC3)c(=O)c3c(Nc4ccc(I)cc4F)n(C)c(=O)c(C)c32)c1 [Trametinib] (partner 0.02 µM)
Outline: as §1

[3] = compound: CC1=C(C=C(C=C1)NC(=O)C2=CC(=CC=C2)C(C)(C)C#N)NC3=CC4=C(C=C3)N=CN(C4=O)C [AZ628] + CCNC(=O)c1noc(-c2cc(C(C)C)c(O)cc2O)c1-c1ccc(CN2CCOCC2)cc1 [Luminespib] (partner 0.01 µM)
Outline: as §1

[4] = compound: C1CC2=C(C1)C=C(C=C2)OC3=NC(=C4C(=N3)N(C=N4)CC5=CC=C(C=C5)C6=CC=CC=C6)N[C@@H](CC7=CC=CC=C7)CO [QS11] + Nc1nc2[nH]cc(CCc3ccc(C(=O)N[C@@H](CCC(=O)O)C(=O)O)cc3)c2c(=O)[nH]1 [Pemetrexed] (partner 0.2 µM)
Outline: as §1

Cell Line | relative viability ([1]; first compound 0.08 µM) | relative viability ([1]; first compound 0.253 µM) | relative viability ([1]; first compound 0.8 µM) | relative viability ([1]; first compound 2.53 µM) | relative viability ([1]; first compound 8 µM) | relative viability ([2]; first compound 0.08 µM) | relative viability ([2]; first compound 0.253 µM) | relative viability ([2]; first compound 0.8 µM) | relative viability ([2]; first compound 2.53 µM) | relative viability ([2]; first compound 8 µM) | relative viability ([3]; first compound 0.08 µM) | relative viability ([3]; first compound 0.253 µM) | relative viability ([3]; first compound 0.8 µM) | relative viability ([3]; first compound 2.53 µM) | relative viability ([3]; first compound 8 µM) | relative viability ([4]; first compound 0.08 µM) | relative viability ([4]; first compound 0.253 µM) | relative viability ([4]; first compound 0.8 µM) | relative viability ([4]; first compound 2.53 µM) | relative viability ([4]; first compound 8 µM)
LOU-NH91 | 0.75 | 0.712 | 0.727 | 0.68 | 0.603 | 0.797 | 0.742 | 0.743 | 0.819 | 0.767 | 0.299 | 0.396 | 0.332 | 0.308 | 0.293 | 0.347 | 0.369 | 0.351 | 0.457 | 0.306
LU99A | 0.436 | 0.363 | 0.415 | 0.33 | 0.22 | 0.532 | 0.626 | 0.517 | 0.5 | 0.533 | 0.306 | 0.283 | 0.23 | 0.207 | 0.183 | 0.169 | 0.172 | 0.173 | 0.169 | 0.168
LXF-289 | 1.12 | 1.08 | 0.98 | 1.06 | 0.652 | 0.671 | 0.711 | 0.583 | 0.621 | 0.629 | 0.672 | 0.67 | 0.681 | 0.653 | 0.544 | 0.873 | 0.931 | 0.761 | 0.9 | 0.876
NCI-H23 | 0.226 | 0.23 | 0.151 | 0.184 | 0.146 | 0.359 | 0.385 | 0.283 | 0.297 | 0.318 | 0.201 | 0.222 | 0.224 | 0.216 | 0.201 | 0.766 | 0.582 | 0.694 | 0.657 | 0.689
NCI-H322M | 0.529 | 0.526 | 0.455 | 0.467 | 0.524 | 0.547 | 0.543 | 0.565 | 0.582 | 0.513 | 0.924 | 0.815 | 0.935 | 0.79 | 0.549 | 0.556 | 0.59 | 0.66 | 0.822 | 0.735
NCI-H358 | 0.499 | 0.405 | 0.367 | 0.412 | 0.302 | 0.117 | 0.136 | 0.167 | 0.153 | 0.157 | 0.285 | 0.279 | 0.273 | 0.311 | 0.167 | 0.167 | 0.175 | 0.146 | 0.186 | 0.168
NCI-H441 | 1.41 | 0.841 | 0.911 | 1.1 | 0.655 | 0.59 | 0.424 | 0.545 | 0.56 | 0.486 | 0.33 | 0.342 | 0.345 | 0.469 | 0.241 | 0.252 | 0.275 | 0.233 | 0.277 | 0.282
NCI-H460 | 0.51 | 0.589 | 0.627 | 0.672 | 0.596 | 0.13 | 0.158 | 0.131 | 0.0849 | 0.0752 | 0.0338 | 0.033 | 0.0403 | 0.0274 | 0.0264 | 0.056 | 0.0683 | 0.0585 | 0.0792 | 0.0751
NCI-H522 | 0.826 | 0.721 | 0.749 | 0.863 | 0.708 | 0.795 | 0.791 | 0.675 | 0.799 | 0.943 | 1.33 | 1.15 | 1.16 | 1.29 | 0.821 | 0.824 | 1.02 | 0.878 | 1 | 0.884
NCI-H596 | 1.11 | 1.08 | 1.02 | 1.17 | 0.915 | 0.776 | 0.755 | 0.692 | 0.683 | 0.706 | 0.931 | 1.11 | 1.02 | 0.984 | 0.829 | 0.456 | 0.468 | 0.507 | 0.528 | 0.476
NCI-H647 | 0.485 | 0.417 | 0.456 | 0.488 | 0.397 | 0.472 | 0.428 | 0.411 | 0.575 | 0.544 | 0.155 | 0.132 | 0.221 | 0.186 | 0.186 | 0.2 | 0.146 | 0.155 | 0.159 | 0.202
NCI-H650 | 1.14 | 1.24 | 1.37 | 1.14 | 0.691 | 0.825 | 0.934 | 1.06 | 0.959 | 0.983 | 0.935 | 0.816 | 0.909 | 0.843 | 0.63 | 0.834 | 0.819 | 0.83 | 0.841 | 0.839
NCI-H838 | 0.957 | 0.884 | 0.915 | 0.95 | 0.922 | 0.558 | 0.535 | 0.355 | 0.469 | 0.383 | 0.305 | 0.318 | 0.336 | 0.386 | 0.246 | 0.245 | 0.237 | 0.236 | 0.237 | 0.24
NCI-H1355 | 0.798 | 0.754 | 0.737 | 0.638 | 0.541 | 0.447 | 0.342 | 0.378 | 0.378 | 0.433 | 0.756 | 0.716 | 0.705 | 0.667 | 0.646 | 1.03 | 0.993 | 0.782 | 1.08 | 1.02
NCI-H1395 | 0.431 | 0.421 | 0.381 | 0.372 | 0.358 | 0.935 | 1.04 | 1.19 | 1.01 | 1.03 | 0.701 | 0.763 | 0.688 | 0.808 | 0.686 | 0.84 | 0.911 | 1.09 | 0.917 | 1.16
NCI-H1437 | 1.17 | 1.07 | 0.657 | 1.13 | 0.898 | 0.551 | 0.561 | 0.474 | 0.477 | 0.499 | 1.23 | 1.06 | 1.09 | 1.16 | 1.14 | 0.314 | 0.331 | 0.301 | 0.286 | 0.271
